Results on 25 compounds are retold here after US20180186796A1, “COMPOUNDS AND USES THEREOF” (LEAD DISCOVERY SIENA S.R.L., priority 2014, published 2018).

The target of experiment [1] is recombinant Fyn (Homo sapiens, UniProt P06241). The experiment in a line: Enzymatic assay on isolated Fyn kinase.
The target of experiment [2] is T1, Recombinant human Src (Homo sapiens, UniProt P12931).
T1 construct: purchased Upstate (Lake Placid, N.Y.)
The experiment in a line: Enzymatic assay on isolated Src. The experiment is classed as biochemical.
Excerpt: Recombinant human Src was purchased from Upstate (Lake Placid, N.Y.).

Where [3] appears, read: read-out: Enzymatic Data (Ki, μM) Fyn.

Like-named read-outs stand apart in the source and are kept apart here.

Chain of recombinant Fyn (P06241 whole entry, looked up): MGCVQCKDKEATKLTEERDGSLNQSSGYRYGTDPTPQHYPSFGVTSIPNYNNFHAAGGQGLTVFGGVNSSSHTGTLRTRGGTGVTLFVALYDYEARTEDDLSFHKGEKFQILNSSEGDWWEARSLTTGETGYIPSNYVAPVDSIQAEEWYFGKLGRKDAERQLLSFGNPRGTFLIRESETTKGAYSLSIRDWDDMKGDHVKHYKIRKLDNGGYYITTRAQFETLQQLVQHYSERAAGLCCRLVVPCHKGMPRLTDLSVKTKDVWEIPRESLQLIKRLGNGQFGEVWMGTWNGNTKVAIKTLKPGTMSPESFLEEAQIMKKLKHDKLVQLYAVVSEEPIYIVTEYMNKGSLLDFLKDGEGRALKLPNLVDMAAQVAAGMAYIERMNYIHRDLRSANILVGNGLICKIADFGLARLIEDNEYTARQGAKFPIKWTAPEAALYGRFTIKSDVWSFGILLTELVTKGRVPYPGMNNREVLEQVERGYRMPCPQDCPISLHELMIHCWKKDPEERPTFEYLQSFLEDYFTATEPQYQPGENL
T1 sequence (P12931 whole entry): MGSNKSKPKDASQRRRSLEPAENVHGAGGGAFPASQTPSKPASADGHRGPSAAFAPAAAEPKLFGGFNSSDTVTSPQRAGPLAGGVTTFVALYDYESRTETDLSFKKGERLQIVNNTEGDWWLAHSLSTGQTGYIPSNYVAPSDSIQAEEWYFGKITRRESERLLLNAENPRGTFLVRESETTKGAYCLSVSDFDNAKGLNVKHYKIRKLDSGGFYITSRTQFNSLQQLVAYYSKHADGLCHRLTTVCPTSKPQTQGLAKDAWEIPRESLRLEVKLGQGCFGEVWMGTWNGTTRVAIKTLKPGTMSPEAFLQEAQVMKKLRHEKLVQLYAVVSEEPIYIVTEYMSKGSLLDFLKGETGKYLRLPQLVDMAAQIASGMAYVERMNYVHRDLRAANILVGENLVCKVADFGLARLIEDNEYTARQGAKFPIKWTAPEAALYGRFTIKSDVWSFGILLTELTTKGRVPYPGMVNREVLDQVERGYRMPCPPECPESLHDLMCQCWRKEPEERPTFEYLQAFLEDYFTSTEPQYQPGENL

With `OCCNc1nc(NCc2ccccc2)c2cnn(/C=C/c3ccccc3)c2n1` [Si74, 2-(4-benzylamino-1-styryl-1H-pyrazolo[3,4-d]pyrimidin-6-ylamino)-ethanol], the Ki in experiment [1] (read-out: Ki Fyn) stood at 1.15 µM.

On to `CCCNc1nc(SCCN2CCOCC2)nc2c1cnn2CC(Cl)c1ccccc1` (centres unmarked) [drawing 192], for which the Ki in experiment [1] (setting [3]) came out at 8.15 µM.

For `CSc1nc(NCCc2cccc(Cl)c2)c2cnn(/C=C/c3ccccc3)c2n1` [drawing 198], the Ki in experiment [1] (setting [3]) turned out to be 16 µM.

On to `CSc1nc(NCCc2cccc(Cl)c2)c2cnn(/C=C/c3ccccc3)c2n1` [Si215, N-[2-(3-chlorophenyl)ethyl]-6-(methylthio)-1-[2-phenylvinyl]-1H-pyrazolo[3,4-d]pyrimidin-4-amine], for which the Ki in experiment [1] lay in the range of 7.5 to 16 µM.

Turning to `Fc1cccc(Nc2nc(SC3CCCC3)nc3c2cnn3CC(Cl)c2ccccc2)c1` (centres unmarked) [Si170, 1-(2-Chloro-2-phenylethyl)-6-(cyclopentylthio)-N-(3-fluorophenyl)-1H-pyrazolo[3,4-d]pyrimidin-4-amine], the Ki in experiment [2] (read-out: Ki c-Src) is ~0.1 µM.

Regarding `ClC(Cn1ncc2c(NCc3ccccc3)nc(Cc3ccccc3)nc21)c1ccccc1` (centres unmarked) [drawing 200], in experiment [1] (setting [3]), the Ki was 13 µM.

For `Fc1ccc(CNc2nc(SCCN3CCOCC3)nc3c2cnn3CC(Cl)c2ccccc2)cc1` (centres unmarked) [Si180, 1-(2-chloro-2-phenylethyl)-N-(4-fluorobenzyl)-6-((2-morpholinoethyl)thio)-1H-pyrazolo[3,4-d]pyrimidin-4-amine], the Ki in experiment [1] lay within 7.5 to 16 µM.

As for `CC(C)Sc1nc(Nc2cccc(F)c2)c2cnn(CC(Cl)c3ccccc3)c2n1` (centres unmarked), in experiment [2] (mean of at least two experiments, read-out: Enzymatic Data (Ki, μM) c-Src), the Ki came out at 0.26 µM.

For `Fc1ccc(CNc2nc(SCCN3CCOCC3)nc3c2cnn3CC(Cl)c2ccccc2)cc1` (centres unmarked) [drawing 193], the Ki in experiment [1] (setting [3]) came out at 15.5 µM.

For `ClC(Cn1ncc2c(NCc3ccccc3)ncnc21)c1ccccc1` (centres unmarked) [Si3], the Ki in experiment [1] (read-out: Ki Fyn) stood at 3.5 µM.

Consider `CCCCSc1nc(Nc2cccc(Cl)c2)c2cnn(CC(Cl)c3ccccc3)c2n1` (centres unmarked) [Si174], for which the Ki in experiment [1] (read-out: Ki Fyn) worked out at 1.4 µM.

With `CNc1nc(SC)nc2c1c(-c1ccccc1)nn2CCc1ccccc1`, the Ki in experiment [1] is > 10 µM.

As to `CCCNc1nc(SCCN2CCOCC2)nc2c1cnn2CC(Cl)c1ccccc1` (centres unmarked) [Si109, 1-(2-chloro-2-phenylethyl)-6-((2-morpholinoethyl)thio)-N-propyl-1H-pyrazolo[3,4-d]pyrimidin-4-amine], in experiment [1], the Ki is 7.5 to 16 µM.

For `ClC(Cn1ncc2c(NCc3ccccc3)nc(Cc3ccccc3)nc21)c1ccccc1` (centres unmarked) [Si164, N,6-dibenzyl-1-(2-chloro-2-phenylethyl)-1H-pyrazolo[3,4-d]pyrimidin-4-amine], the Ki in experiment [1] was in the range of 7.5 to 16 µM.

As for `Fc1cccc(Nc2nc(SC3CCCC3)nc3c2cnn3CC(Cl)c2ccccc2)c1` (centres unmarked) [drawing 191, reference compound], in experiment [1], the Ki was > 100 µM.

Regarding `ClC(Cn1ncc2c(NCCc3ccccc3)nc(SCCN3CCOCC3)nc21)c1ccccc1` (centres unmarked), the Ki in experiment [1] is > 100 µM.

Regarding `CC(Cn1nc(-c2ccc(Cl)cc2)c2c(N)ncnc21)c1ccccc1` (centres unmarked) [Si337, 3-(4-Chlorophenyl)-1-(2-phenylpropyl)-1H-pyrazolo[3,4-d]pyrimidin-4-amine], the Ki in experiment [1] was found to be 0.78 µM. In addition, the “decreased Fyn activity on substitution of chlorine by methyl in N1 side chain” value in experiment [1] (Si312 vs Si244, Si337 vs Si308, Si338 vs Si309) is recorded as “about 10 fold”.

In the case of `ClC(Cn1ncc2c(NCCc3ccccc3)nc(SC3CCCC3)nc21)c1ccccc1` (centres unmarked), in experiment [1], the inhibitory constant (Ki) was > 100 µM.

Regarding `CC(Cn1nc(-c2ccc3[nH]ccc3c2)c2c(N)ncnc21)c1ccccc1` (centres unmarked), in experiment [1] (setting [3]), the Ki came to 1.62 µM.

Regarding `COC(Cn1nc(-c2ccccc2)c2c(N)nc(SC)nc21)c1ccccc1` (centres unmarked), in experiment [1], the Ki was > 10 µM.

With `COc1ccc(-c2nn(CC(Cl)c3ccccc3)c3ncnc(N)c23)cc1` (centres unmarked), the Ki in experiment [1] (setting [3]) stood at 1.49 µM.

`CCC(C)Sc1nc(NCCc2ccccc2)c2cnn(CC(Cl)c3ccccc3)c2n1` (centres unmarked) [drawing 196]: the Ki in experiment [1] was > 100 µM.

For `CCC(C)Sc1nc(NCc2ccccc2)c2cnn(CC(Cl)c3ccccc3)c2n1` (centres unmarked) [drawing 195], the Ki in experiment [1] is > 100 µM.

As to `CC(=O)c1ccc(-c2nn(CC(C)c3ccccc3)c3ncnc(N)c23)cc1` (centres unmarked) [drawing 206], the Ki in experiment [1] was > 10 µM.

`CCCCSc1nc(NCCc2ccccc2)c2cnn(CC(Cl)c3ccccc3)c2n1` (centres unmarked): the Ki in experiment [1] was > 100 µM.

The term Ki denotes a dissociation constant, usually derived from enzyme kinetics or from competition with a known ligand.
